Source: paper PMC7403315, “Cyclic peptide FXII inhibitor provides safe anticoagulation in a thrombosis model and in artificial lungs” (Nature Communications, 2020)
“And” between values parts separate entries of the source, which are not always exact repeats. Equal entries are not always repeated. Where two headings read alike, the source gives them in different places. Starred links: 1 amine or outer side, 2 acyl side, 3 side chain; linkers in the order of their positions; H or OH if unused. Positions of bridges follow the written chain, without caps; N, C: chain ends. Non-standard residues stand in square brackets, D forms with d. Residues, ends and D or L forms follow the SMILES beside them. TATA = O=C(CC[*:1])N1CN(C(=O)CC[*:2])CN(C(=O)CC[*:3])C1; Phe(4-F) = N[C@@H](Cc1ccc(F)cc1)C(=O)O; β3hR = N=C(N)NCCC[C@H](N)CC(=O)O

Tests used:
[1] = Plasma stability assay (residual FXIIa inhibitory activity after plasma incubation); assay type: in vitro ADME, human; details: for Residual activity of inhibitor: human plasma 37 °C; for half-life at 10 μM: human, plasma
Description: Peptide (2 μl of 2 mM in H2O) was added to 398 μl of citrated human plasma (Innovative Research) to obtain a final peptide concentration of 10 μM. The mixture was incubated in a water bath at 37 °C. At different time points (0, 0.5, 1, 2, 4, 8, 12, 24, 48, and 96 h), samples of 30 μl were removed, diluted to 200 μl with aqueous buffer (10 mM Tris-HCl, pH 7.4, 150 mM NaCl, 10 mM MgCl2, 1 mM CaCl2), and incubated for 20 min at 65 °C to inactivate plasma proteases. The peptide/plasma samples were stored at −20 °C until the residual inhibitory activity of the peptides was measured in a FXIIa inhibition assay. […] IC50 values were derived from the fitted curve using an equation described in the Supplementary Methods. Residual inhibition in % was calculated using the equation IC50,0h/IC50,xh*100, wherein IC50,0h is the functional strength of the inhibitor at time point 0 and IC50,xh the functional strength of the inhibitor after one of the different plasma incubation periods mentioned above.

[2] = Plasma degradation assay (LC-MS); assay type: in vitro ADME, mouse; details: 37 °C
Description: Plasma stability and peptide cleavage sites were assessed by incubating the bicyclic peptides in mouse plasma and analyzing the products with an LC-MS system (LCMS-2020, Shimadzu). Peptide (2 μl of 2 mM in H2O) was added to 48 μl of citrated mouse plasma (Innovative Research) to obtain a final peptide concentration of 80 μM. The mixture was incubated in a water bath at 37 °C. At different time points (0, 15, 24, 72, 96, 120, and 144 h), samples of 5 μl were removed, mixed with 5 μl of 6 M guanidinium hydrochloride, and incubated for 30 min at RT. Plasma proteins were precipitated by incubation with 200 μl of ice cold EtOH and 0.1% (v/v) formic acid for 30 min and centrifuged at 9000 × g for 20 min at 4 °C. […] The residue was dissolved in 40 µl of deionized water containing 0.1% (v/v) CHOOH and analyzed by LC-MS. The samples were analyzed using an analytical C18 column (Phenomenex C18 Kinetex column, 50 × 2.1 mm, 2.6 μm, 100 Å) and a linear gradient of 5–35% solvent B (MeCN, 0.05% [v/v] CHOOH) in solvent A (H2O, 0.05% [v/v] CHOOH) in 5.5 min at a flow of 1 ml per min. The masses of the intact peptide and degradation products were measured on a single quadrupole mass spectrometer in positive ion mode using electrospray ionization. Peptides were quantified based on the absolute intensities of the detected mass peaks (M^3+ and M^4+).

[3] = Pharmacokinetic study in rabbits (plasma concentration by LC-MS); assay type: in vivo, rabbit
Description: The pharmacokinetic properties of FXII900 applied intravenously were determined as follows. Female New Zealand White rabbits (10–20 weeks old) were injected with 3.7 mg kg^−1 FXII900 dissolved in 1 ml PBS, pH 7.4 via the ear vein. […] The concentration of FXII900 in the plasma samples was determined by LC-MS as described below. The pharmacokinetic properties of FXII900 applied subcutaneously were determined as follows. Female New Zealand White rabbits (2.5–2.9 kg) were injected subcutaneously over the shoulders with 3.7 mg kg^−1 of FXII900 dissolved in 1 ml PBS pH 7.4. […] The plasma was stored at −80 °C. The concentration of FXII900 in the plasma samples was determined by LC-MS as described below.
(§1) The concentration of FXII900 in the plasma samples was quantified based on peak intensities of total ion current (TIC) chromatograms acquired by LC-MS (LCMS-2020, Shimadzu). To 15 μl of plasma sample, 1 μM of internal standard peptide and 5 μl of 6 M guanidinium hydrochloride solution were added and mixed. Plasma proteins were precipitated by the addition of 400 µl of ice cold ethanol (99.9% [v/v] EtOH, 0.1% [v/v] TFA) and incubated on ice for one hour. Precipitate was removed by centrifugation (9000 × g, 20 min, 4 °C) and the supernatant dried by centrifugal evaporation under vacuum. Dried samples were dissolved by sequentially adding 2 μl of DMSO and 18 μl of H2O containing 0.1% (v/v) CHOOH and analyzed by LC-MS. The samples were analyzed using an analytical C18 column (Phenomenex C18 Kinetex column, 50 × 2.1 mm, 2.6 µm, 100 Å) and a linear gradient of 5–30% solvent B (MeCN, 0.05% [v/v] CHOOH) in solvent A (H2O, 0.05% [v/v] CHOOH) in 4.5 min at a flow of 1 ml per min. The mass was measured on a single quadrupole mass spectrometer in positive ion mode using electrospray ionization. Peptides were quantified based on the absolute intensities of the detected mass peaks (M^3+ and M^4+).

[4] = Pharmacokinetic study in pigs (plasma concentration by LC-MS); assay type: in vivo, pig
Description: Swiss large white pigs, both sexes, 3–4 months old (30 ± 5 kg) were anesthetized and prepared following procedures used to study myocardial ischemia/reperfusion injury. In this procedure, the ACT is monitored and 2500 IU of heparin are injected when ACT values fall below 180 s. Pigs were injected intravenously with 4 mg kg^−1 of FXII900 dissolved in 1 ml PBS, pH 7.4. […] The concentration of FXII900 in the plasma samples was determined by LC-MS as described below.
as §1

[5] = female, New Zealand White, rabbit, plasma, intravenous, 3.7 mg kg-1

In the case of CC(C)C[C@@H]1NC(=O)[C@H](CCC(N)=O)NC(=O)[C@H](Cc2c[nH]cn2)NC(=O)[C@@H]2CSCCC(=O)N3CN(CN(C3)C(=O)CCSC[C@H](NC(=O)[C@@H](CO)NC(=O)[C@H](N)CCCNC(=N)N)C(=O)N[C@@H](Cc3ccc(F)cc3)C(=O)N[C@@H](CCCNC(=N)N)C(=O)N[C@@H](CC(C)C)C(=O)N3CCC[C@H]3C(=O)N2)C(=O)CCSC[C@@H](C(N)=O)NC(=O)C[C@H](CCCNC(=N)N)NC1=O [FXII900] (H-[dR][dS]C[Phe(4-F)]RLPCHQL[β3hR]C-NH2; linker 3-8-13 via TATA), the “Residual activity of inhibitor” value ([1]; incubation time 0 h) is reported as 100%, the “Residual activity of inhibitor” value ([1]; incubation time 1 h) is reported as 95.4017% and 101.157% and the “Residual activity of inhibitor” value ([1]; incubation time 2 h) is reported as 110.888% and 102.799%. The “Residual activity of inhibitor” value ([1]; incubation time 4 h) was 107.121% and 93.1543%, the “Residual activity of inhibitor” value ([1]; incubation time 8 h) was 88.5873% and 105.225% and the “Residual activity of inhibitor” value ([1]; incubation time 12 h) was 112.249% and 90.2639%. For the same compound, the “Residual activity of inhibitor” value ([1]; incubation time 24 h) was 92.7385% and 98.9596%, the “Residual activity of inhibitor” value ([1]; incubation time 48 h) was 82.5714% and 71.5934% and the “Residual activity of inhibitor” value ([1]; incubation time 96 h) was 52.5% and 56.04%. The half-life at 10 μM ([1]; 37 °C, remaining FXIIa inhibitory activity, read-out: half-life in human plasma (converted)) was 128 h, the half-life at 10 μM ([1]; t1/2 in plasma) was over 120 h and the “degradation products by mass spectrometric analysis of plasma samples” value [2] was “no degradation products”. For the same compound, the Vd [3, 5] was 0.28 ± 0.05 L/kg, the clearance [3, 5] was 0.966 ± 0.06 L/h/kg and the half-life ([3]; female, New Zealand White, rabbit, plasma, intravenous, 3.7 mg kg^−1, read-out: elimination half-life (t1/2 β)) was 12 ± 2 min. The level at time molar at 2 min ([3]; female, New Zealand White, rabbit, plasma, iv, 3.7 mg/kg, intravenous administration, 2 min, individual rabbits and analyses, read-out: Plasma conc.) was 5.51 µM, the level at time molar at 5 min ([3]; female, New Zealand White, rabbit, plasma, iv, 3.7 mg/kg, intravenous administration, 5 min, individual rabbits and analyses, read-out: Plasma conc.) was 2.61 µM and the level at time molar at 10 min ([3]; female, New Zealand White, rabbit, plasma, iv, 3.7 mg/kg, intravenous administration, 10 min, individual rabbits and analyses, read-out: Plasma conc.) was 2.25 µM. The level at time molar at 20 min ([3]; female, New Zealand White, rabbit, plasma, iv, 3.7 mg/kg, intravenous administration, 20 min, individual rabbits and analyses, read-out: Plasma conc.) was 1.26 µM, the level at time molar at 40 min ([3]; female, New Zealand White, rabbit, plasma, iv, 3.7 mg/kg, intravenous administration, 40 min, individual rabbits and analyses, read-out: Plasma conc.) was 0.503 µM and the level at time molar at 40 min ([3]; female, New Zealand White, rabbit, plasma, sc, 3.7 mg/kg, subcutaneous administration, 40 min, individual rabbits and analyses, read-out: Plasma conc.) was 0.254 µM. For the same compound, the “Plasma conc.” value ([3]; intravenous administration, 5 min, individual rabbits and analyses) was 2.596 µM, the “Plasma conc.” value ([3]; intravenous administration, 10 min, individual rabbits and analyses) was 2.079 µM and the “Plasma conc.” value ([3]; intravenous administration, 20 min, individual rabbits and analyses) was 1.683 µM and 1.119 µM. The “Plasma conc.” value ([3]; intravenous administration, 40 min, individual rabbits and analyses) was 0.3139 µM, the “Plasma conc.” value ([3]; subcutaneous administration, 10 min, individual rabbits and analyses) was 0.2376 µM and the “Plasma conc.” value ([3]; subcutaneous administration, 160 min, individual rabbits and analyses) was -0.00509 µM. It also gave a clearance ([4]; both sexes, Swiss large white, pig, plasma, intravenous, 4 mg kg^−1, read-out: clearance rate (CL)) of 0.708 ± 0.108 L/h/kg, a Cmax ([4]; both sexes, Swiss large white, pig, plasma, intravenous, 4 mg kg^−1, read-out: maximal concentration) of about 7 µM and a half-life ([4]; both sexes, Swiss large white, pig, plasma, intravenous, 4 mg kg^−1, read-out: t1/2 (t1/2 β)) of 36 ± 5 min. It also gave a Vd ([4]; both sexes, Swiss large white, pig, plasma, intravenous, 4 mg kg^−1, read-out: volume of distribution (VD)) of 0.61 ± 0.14 L/kg, a level at time molar at 4 min ([4]; both sexes, Swiss large white, pig, plasma, iv, 4 mg/kg, intravenous administration, 4 min, individual pigs and analyses, read-out: Plasma conc.) of 7.47 µM and a level at time molar at […] ([4]; both sexes, Swiss large white, pig, plasma, iv, 4 mg/kg, intravenous administration, 15 min, individual pigs and analyses, read-out: Plasma conc.) of 2.71 µM. It also gave a level at time molar at 16 min ([4]; both sexes, Swiss large white, pig, plasma, iv, 4 mg/kg, intravenous administration, 16 min, individual pigs and analyses, read-out: Plasma conc.) of 3.71 µM, a level at time molar at 35 min ([4]; both sexes, Swiss large white, pig, plasma, iv, 4 mg/kg, intravenous administration, 35 min, individual pigs and analyses, read-out: Plasma conc.) of 1.29 µM and a level at time molar at 0.6 h ([4]; both sexes, Swiss large white, pig, plasma, iv, 4 mg/kg, intravenous administration, 36 min, individual pigs and analyses, read-out: Plasma conc.) of 1.78 µM. For the same compound, the level at time molar at 65 min ([4]; both sexes, Swiss large white, pig, plasma, iv, 4 mg/kg, intravenous administration, 65 min, individual pigs and analyses, read-out: Plasma conc.) was 0.692 µM, the level at time molar at 1.1 h ([4]; both sexes, Swiss large white, pig, plasma, iv, 4 mg/kg, intravenous administration, 66 min, individual pigs and analyses, read-out: Plasma conc.) was 0.799 µM and the level at time molar at 2 h ([4]; both sexes, Swiss large white, pig, plasma, iv, 4 mg/kg, intravenous administration, 120 min, individual pigs and analyses, read-out: Plasma conc.) was 0.278 µM. For the same compound, the “Plasma conc.” value ([4]; intravenous administration, 4 min, individual pigs and analyses) was 7.458 µM and 7.475 µM and the “Plasma conc.” value ([4]; intravenous administration, 35 min, individual pigs and analyses) was 1.282 µM.
